“And” between values parts separate entries of the source, which are not always exact repeats. Equal entries are not always repeated.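 All cell lines were grown in 96-well plates and treated with compound for 48 hours. Abbreviation: GI50, concentration required for 50% inhibition of growth. TGI: concentration producing complete growth inhibition.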 Where only a bound is given, the exact number is not on record here.

Data on 13 compounds can be found in PubChem BioAssay (NCI).

Common to all, as to test: NCI tumour cell line growth inhibition, 48 h
The subject of assay [1] is CCRF-CEM leukemia.
Assay [2] concerns HCT-15 colon.
For assay [3], the system named is EKVX NSCLC.
For assay [4], the system named is SN12C renal.
In assay [5] the test system is SR leukemia.
Assay [6] relates to SF-539 CNS.
For assay [7], the system named is SF-295 CNS.
Assay [8] deals with SF-268 CNS.
For assay [9], the system named is NCI-H460 lung.
Assay [10] has as its system M14 melanoma.

Consider `CCN(C(=O)N1CCN(c2cc3c(cc2F)c(=O)c(C(=O)O)cn3C2CC2)CC1)c1nc(-c2ccc(C)cc2)cs1`, for which the GI50 in assay [1] is 0.356 µM; in assay [2] it was 0.341 µM; in assay [3], 1.52 µM; in assay [4] it was 0.365 µM; in [5], 0.269 µM; in [6], 0.356 µM. For the same compound, the GI50 in assay [7] is 0.306 µM; in assay [8] it was 1.06 µM; in [9] it was 0.356 µM; in [10], 0.928 µM. Besides, the TGI was > 100 µM in assay [1]; > 100 µM in [2]; > 100 µM in [3]; > 100 µM in assay [4]; > 100 µM in assay [5]; 2.65 µM in assay [6]. The TGI was 3.76 µM in assay [7], > 100 µM in [8], 11.9 µM in assay [9] and > 100 µM in assay [10].

For the compound `C[C@]12CCC3[C@@H](CC[C@@H]4c5nonc5CC[C@]34C)C1CCC(=O)N2` (stereo partly specified), the TGI in assay [1], in assay [2], in assay [3], in assay [4], in [5] and in assay [6] was > 100 µM throughout. Besides, the TGI in assay [7], in assay [8], in [9] and in assay [10] was > 100 µM in each case. For the same compound, the GI50 in [5] was > 100 µM.

As to `O=[N+]([O-])c1cccc(-c2nc3sccn3c2-c2ccnc(NCCCNS(=O)(=O)c3cccc(F)c3)n2)c1`, the GI50 was 1.3 µM in assay [1]; 2.3 µM in assay [2]; 2.77 µM in assay [3]; 2.71 µM in [4]; 3.1 µM in assay [5]; 4.04 µM in assay [6]. The GI50 in assay [7] is 2.52 µM; in assay [8], 3.21 µM; in assay [9] it was 3.34 µM; in assay [10], 2.82 µM. For the same compound, the TGI in [1] is > 100 µM; in [2], 12.3 µM; in assay [3], 52.7 µM; in assay [4] it was 44.8 µM; in assay [5], > 100 µM; in assay [6] it was 20.8 µM. Moreover, the TGI in assay [7] is 7.79 µM; in assay [8], 21.9 µM; in assay [9], > 100 µM; in assay [10] it was 12 µM.

Consider `O=c1[nH]c2ccccc2nc1-c1c[nH]c2ccccc12`, for which the GI50 was > 100 µM in assay [1]; > 100 µM in [2]; 18.8 µM in [3]; > 100 µM in [4]; > 100 µM in [5]; > 100 µM in assay [6]. For the same compound, the GI50 in [7] was 68.2 µM; in assay [8] it was > 100 µM; in assay [9], > 100 µM; in assay [10], > 100 µM. Besides, the TGI in assay [1], in [2], in assay [3], in assay [4], in assay [5] and in assay [6] was > 100 µM throughout. Also, the TGI in assay [7], in assay [8], in assay [9] and in [10] was > 100 µM in each case.

For `CN1CCN(Cc2ccc(NC(=O)c3cncc(C#Cc4cnc(N)c5ccncc45)c3)cc2C(F)(F)F)CC1`, the GI50 is 0.554 µM in [1]; 1.42 µM in assay [2]; 1.44 µM in [3]; 0.837 µM in [4]; 0.567 µM in assay [5]; 0.484 µM in assay [6]. For the same compound, the GI50 was 2.16 µM in [7], 0.972 µM in assay [8], 0.374 µM in [9] and 0.141 µM in assay [10]. Besides, the TGI was 11.6 µM in assay [1]; 5.84 µM in assay [2]; > 16.8 µM in assay [3]; > 50 µM in assay [4]; > 24.5 µM in [5]; 2.03 µM in [6]. In addition, the TGI in assay [7] is > 50 µM; in [8], 6.89 µM; in assay [9], 5.81 µM; in assay [10] it was 0.547 µM.

Take `CCCn1c(C)nc2c1C(=O)c1ccccc1C2=O`: the GI50 was 15.6 µM in [1]; 14.2 µM in assay [2]; 18.9 µM in assay [3]; 25.5 µM in assay [4]; 15.1 µM in [5]; 27.1 µM in [6]. For the same compound, the GI50 is 13 µM in assay [7], 20.8 µM in assay [8], 20.4 µM in [9] and 40 µM in assay [10]. Also, the TGI in assay [1] is > 100 µM; in [2] it was > 100 µM; in [3], 70.8 µM; in [4] it was > 100 µM; in [5], 79.4 µM; in assay [6], > 100 µM. Moreover, the TGI in assay [7] was 41.6 µM; in assay [8], > 100 µM; in [9] it was 57.3 µM; in [10] it was > 100 µM.

Take `Cc1cc2c(C)n(Cc3ccc(Cl)cc3Cl)nc2c(C#N)c1C`: the TGI is > 100 µM in assay [1]; > 100 µM in [2]; > 100 µM in assay [3]; > 100 µM in assay [4]; > 100 µM in [5]; > 62.5 µM in assay [6]. In addition, the TGI was 60.9 µM in assay [7], > 100 µM in assay [8], > 100 µM in assay [9] and > 100 µM in assay [10].

Take `O=C1C(=O)c2c(nc3ccc(Cl)cn23)-c2ccccc21`: the GI50 is 0.411 µM in assay [1]; 1.08 µM in assay [2]; 1.65 µM in assay [3]; 0.219 µM in assay [4]; 0.348 µM in assay [5]; 0.189 µM in assay [6]. In addition, the GI50 in [7] was 1.52 µM; in [8], 0.307 µM; in assay [9], 0.538 µM; in [10] it was 1.3 µM. For the same compound, the TGI in assay [1] came to 3.68 µM; in assay [2] it was 2.73 µM; in assay [3], 3.38 µM; in assay [4] it was 0.567 µM; in assay [5], 1.44 µM; in assay [6], 0.358 µM. For the same compound, the TGI turned out to be 3.13 µM in [7], 1.18 µM in assay [8], 2.31 µM in [9] and 3.05 µM in [10].

`Cc1ccc(C(=O)Nc2cccc(C(F)(F)F)c2)cc1Nc1nc(-c2cccnc2)nc2c1cnn2C`: the GI50 in [1] was 3.02 µM and 2.44 µM; in assay [2], 2.65 µM and 1.63 µM; in assay [3], 3.22 µM and 2.59 µM; in assay [4], 2.45 µM and 1.7 µM; in assay [5], 0.822 µM; in [6], 2.59 µM and 1.22 µM. Further, the GI50 in assay [7] is 2.12 µM and 1.84 µM; in [8] it was 4.01 µM and 2.91 µM; in assay [9], 2.84 µM and 2.54 µM; in [10] it was 1.05 µM and 0.442 µM. The TGI is > 100 µM in assay [1]; 4.94 µM in [2]; 21.3 µM and > 10 µM in [3]; 13.8 µM and > 10 µM in assay [4]; 6.58 µM in assay [5]; 13.3 µM and 3.28 µM in assay [6]. Besides, the TGI in assay [7] was 4.99 µM and 4.47 µM; in assay [8], 21.9 µM and > 10 µM; in assay [9] it was 12.5 µM and 7.19 µM; in assay [10], 3.66 µM and 3.43 µM.

Consider `CCOc1ccc2nc(NC(=O)c3c/c(=N\NC(=O)C[N+](C)(C)C)c4ccc(O)cc4o3)sc2c1`, for which the TGI in [1] turned out to be 5.96 µM; in assay [2] it was 20 µM; in assay [3] it was 11.9 µM; in assay [4], 14.5 µM; in assay [5], 17.3 µM; in assay [6], 11 µM. In addition, the TGI in assay [7] came out at 11.1 µM; in assay [8], 11.6 µM; in assay [9], 13.4 µM; in assay [10], 3.1 µM.

`CCOC(=O)c1oc2ccc(OC)c3c2c1CCC3`: the TGI in assay [1], in assay [2], in [3], in assay [4], in assay [5] and in [6] was > 100 µM in each case. The TGI in assay [7], in assay [8], in [9] and in [10] was > 100 µM each time.

For `Brc1cccc(C2SCc3nc4ccccc4n32)c1` (stereo unspecified), the TGI in assay [1] is > 100 µM; in assay [2], 35.9 µM; in assay [3] it was 55.2 µM; in assay [4] it was 33.2 µM; in assay [5], 57.7 µM; in assay [6], 40.9 µM. For the same compound, the TGI in assay [7] is 86.3 µM; in [8], > 100 µM; in assay [9] it was 99.1 µM; in [10], 53.1 µM.

Turning to `Cn1cnc2nc(Cl)nc(NC(C)(C)C(C)(C)O)c21`, the TGI in [1], in assay [2], in [3], in assay [4], in [5] and in assay [6] was > 100 µM throughout. Further, the TGI in [7], in assay [8], in assay [9] and in assay [10] was > 100 µM in each case.
